Data: patent publication US7247646B2, “Benzopyranone compounds, compositions thereof, and methods of treatment therewith” (Signal Pharmaceuticals, LLC, priority 2003, dated 2007)
“And” between values parts separate entries of the source, which are not always exact repeats. Equal entries are not always repeated.

Key:
Assay type in all cases: cell-based
[1] = test system: MCF-7 breast cancer cells; experiment: Inhibition of 17β-estradiol-dependent MCF-7 breast cancer cell proliferation (3H-thymidine incorporation); conditions: Homo sapiens, MCF7; with 0.1 nM 17β-estradiol, 72 h, then 3H-thymidine 4 h; compound 0.1–1000 nM
Procedure: MCF-7 cells represent an excellent in vitro system to study the effects of compounds on estrogen-dependent breast cancer growth. (May, F. E. B.; Westley, B. R. J. Biol. Chem. 262:15894–15899, 1987). Benzopyranone Compounds having an IC50<100 nM are particularly useful as anti-breast cancer agents in vivo.
MCF-7 breast carcinoma cells were plated in 24-well dishes at a density of 5×10^3 cells/well in phenol-red free DMEM:F-12 (1:1) medium containing 1% antibiotics, 0.05% mercaptoethanol, 0.01% ethanolamine, 0.42 ng/mL sodium selenite and 5% charcoal-stripped FCS.
Illustrative Benzopyranone Compounds (0.1–1000 nM in 0.2% DMSO) and 0.1 nM 17β-estradiol were added to the cultured MCF-7 breast cancer cells for 72 h. Subsequently, ^3H-labeled thymidine was added and its incorporation into cells was measured following 4 h incubation. The results (Table 2) are expressed as an IC50 (nM) value which is the concentration of the Benzopyranone Compound sufficient to inhibit the growth of MCF-7 breast cancer cells by 50% relative to controls.

human ER-β = biological target: T1, human ER-β (Homo sapiens, UniProt Q92731); experiment: Inhibition of IL-6 release from U-2 OS osteosarcoma cells stably transfected with human ER-β; conditions: IL-6 production (ELISA) after 2.5 ng/ml TNFα and 1 ng/ml IL-1β stimulation, 24 h; compound 0.01–1000 nM; vehicle = 100%; read-out: IC50 (nM) U2 OS (ER-β)
T1 construct: stably transfected with expression vectors for human full-length ER-α or ER-β; expressed in transfected cells
T1 sequence (Q92731 whole entry): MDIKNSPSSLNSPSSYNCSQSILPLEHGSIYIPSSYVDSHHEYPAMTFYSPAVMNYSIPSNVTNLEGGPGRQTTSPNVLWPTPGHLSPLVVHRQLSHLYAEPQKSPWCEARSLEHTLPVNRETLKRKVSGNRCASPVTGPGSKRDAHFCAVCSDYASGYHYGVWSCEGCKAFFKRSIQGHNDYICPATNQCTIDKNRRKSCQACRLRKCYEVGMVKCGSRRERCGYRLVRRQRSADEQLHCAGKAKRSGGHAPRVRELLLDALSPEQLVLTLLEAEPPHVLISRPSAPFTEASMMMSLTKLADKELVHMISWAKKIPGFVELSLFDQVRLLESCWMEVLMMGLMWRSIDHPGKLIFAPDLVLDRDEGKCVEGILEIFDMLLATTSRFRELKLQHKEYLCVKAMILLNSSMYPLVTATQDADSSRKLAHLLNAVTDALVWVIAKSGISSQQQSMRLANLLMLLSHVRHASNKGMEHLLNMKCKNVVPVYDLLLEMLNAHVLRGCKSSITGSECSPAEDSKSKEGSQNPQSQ
Procedure: (§1) Illustrative Benzopyranone Compounds were tested for their ability to inhibit IL-6 release from human U-2 OS osteosarcoma cells stably transfected with human ER-α or ER-β. (Stein, B.; Yang, M. X. Mol. Cell. Biol 15: 4971–4979, 1995; Poli, V. et. al., EMBO J. 13:1189–1196, 1994). […] Benzopyranone Compounds having an IC50<100 nM are particularly useful as bone resorption inhibitors in vivo. Accordingly, the Benzopyranone Compounds, are particularly useful for the treatment of osteoporosis, Paget's disease and metastatic bone cancer. These Benzopyranone Compounds are also useful as anti-cancer agents, since elevated IL-6 levels are responsible for certain cancers such as multiple myeloma, prostate cancer, ovarian cancer, renal carcinoma and cervical carcinoma.
(§2) Human U-2 OS osteosarcoma cells (ATCC) were stably transfected with expression vectors for human full-length ER-α or ER-β using standard molecular biology techniques. Stable subclones were generated that expressed high levels of ER-α or ER-β mRNA. The expression of ER-α or ER-β was confirmed using RNase protection analysis.
(§3) Cells were plated into 96-well plates at a density of 80,000 cells per well in phenol red-free media with charcoal-stripped fetal calf serum. Twenty four hours later, cells were either treated with vehicle (0.2% DMSO) or a Benzopyranone Compound (0.01–1000 nm in 0.2% DMSO). Thirty minutes later cells were stimulated with 2.5 ng/ml TNFα and 1 ng/ml IL-1β. Twenty-four hours later the media supernatant was analyzed for cytokine production (IL-6) using commercially available ELISA kits following the manufacturer's instructions. Cytokine production in the presence of vehicle (0.2% DMSO) was set to 100%.
(§4) The results (Table 2) are expressed as an IC50 (nM) value which is the concentration of the Benzopyranone Compound sufficient to inhibit the production of IL-6 50% relative to the amount of IL-6 produced in the presence of vehicle.

human ER-α = biological target: T2, human ER-α (Homo sapiens, UniProt P03372); experiment: Inhibition of IL-6 release from U-2 OS osteosarcoma cells stably transfected with human ER-α; conditions: IL-6 production (ELISA) after 2.5 ng/ml TNFα and 1 ng/ml IL-1β stimulation, 24 h; compound 0.01–1000 nM; vehicle = 100%; read-out: IC50 (nM) U2 OS (ER-α)
T2 construct: stably transfected with expression vectors for human full-length ER-α or ER-β; expressed in transfected cells
T2 sequence (P03372 1-595): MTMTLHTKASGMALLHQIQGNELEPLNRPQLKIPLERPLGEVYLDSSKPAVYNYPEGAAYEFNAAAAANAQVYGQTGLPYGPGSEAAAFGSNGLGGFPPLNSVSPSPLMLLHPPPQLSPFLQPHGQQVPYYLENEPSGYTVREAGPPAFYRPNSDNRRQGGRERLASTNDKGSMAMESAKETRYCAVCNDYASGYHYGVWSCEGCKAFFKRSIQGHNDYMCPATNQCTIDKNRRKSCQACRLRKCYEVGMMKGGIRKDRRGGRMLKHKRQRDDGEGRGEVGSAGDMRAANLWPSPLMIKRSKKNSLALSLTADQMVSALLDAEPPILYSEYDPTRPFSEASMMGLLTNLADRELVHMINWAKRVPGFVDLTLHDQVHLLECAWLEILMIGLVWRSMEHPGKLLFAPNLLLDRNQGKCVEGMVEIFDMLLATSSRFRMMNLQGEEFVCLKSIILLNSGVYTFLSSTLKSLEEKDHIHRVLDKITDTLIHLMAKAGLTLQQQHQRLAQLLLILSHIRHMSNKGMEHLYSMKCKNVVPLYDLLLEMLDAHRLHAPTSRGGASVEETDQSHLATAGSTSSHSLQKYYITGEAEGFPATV
Procedure: as §1, §2, §3, §4

Structure (SMILES) | IC50 [1] [nM] | IC50 (human ER-β) [nM] | IC50 (human ER-α)
Cc1c(O)ccc2c(Cc3ccc(OCCN4CCCC4)cc3)c(-c3ccc(Cl)cc3)c(=O)oc12 | < 1000 | < 1000 | 285 nM
Cc1c(O)ccc2c(Cc3ccc(OCCN4CCCC4)cc3)c(-c3ccc(Cl)cc3Cl)c(=O)oc12 | 35 | < 1000 | 6.9 nM
N#Cc1c(O)ccc2c(Cc3ccc(OCCN4CCCC4)cc3)c(-c3ccc(C(F)(F)F)cc3)c(=O)oc12 | – | > 1000 | 390 nM
CC(=O)c1c(O)ccc2c(Cc3ccc(OCCN4CCCC4)cc3)c(-c3ccc(Cl)cc3Cl)c(=O)oc12 | 112 | < 1000 | 5 nM
Cc1cc2c(Cc3ccc(OCCN4CCCC4)cc3)c(-c3ccc(Cl)cc3Cl)c(=O)oc2cc1O | 10 | > 1000 | 1.7 nM
Cc1c(O)ccc2c(Cc3ccc(OCCN4CCCC4)cc3)c(-c3ccc(C(F)(F)F)cc3)c(=O)oc12 | 235 | < 1000 | 55.5 nM

Now from value to molecule:

IC50 [1] [nM] | IC50 (human ER-β) [nM] | IC50 (human ER-α) | Structure (SMILES)
185 | < 1000 | 39 nM | CC(=O)c1c(O)ccc2c(Cc3ccc(OCCN4CCCC4)cc3)c(-c3ccc(C(F)(F)F)cc3)c(=O)oc12
> 1000 | > 1000 | 850 nM and > 1000 nM | CC(=O)c1cc2c(Cc3ccc(OCCN4CCCC4)cc3)c(-c3ccc(C(F)(F)F)cc3)c(=O)oc2cc1O
– | > 1000 | 850 nM and > 1000 nM | CC(O)c1cc2c(Cc3ccc(OCCN4CCCC4)cc3)c(-c3ccc(C(F)(F)F)cc3)c(=O)oc2cc1O (stereo not shown)
> 1000 | > 1000 | 310 nM and > 1000 nM | O=c1oc2cc(O)c(Br)cc2c(Cc2ccc(OCCN3CCCC3)cc2)c1-c1ccc(C(F)(F)F)cc1
59.5 | > 1000 | 13.3 nM | Cc1cc2c(Cc3ccc(OCCN4CCCC4)cc3)c(-c3ccc(C(F)(F)F)cc3)c(=O)oc2cc1O
